{
  "source": "paper PMC3959874",
  "about": "(European journal of dermatology : EJD, 2013)",
  "key": {"Bradykinin B1": {"molecular_target": "Bradykinin B1 (Homo sapiens, UniProt P46663)", "test": "Radioligand binding assay", "settings": "10 μM; 25 °C, 60 min"}, "Dopamine D3": {"molecular_target": "Dopamine D3 (Homo sapiens, UniProt P35462)", "test": "Radioligand binding assay", "settings": "10 μM; 37 °C, 120 min"}, "Adrenergic a2A": {"molecular_target": "Adrenergic a2A (Homo sapiens, UniProt P08913)", "sequence (P08913 whole entry)": "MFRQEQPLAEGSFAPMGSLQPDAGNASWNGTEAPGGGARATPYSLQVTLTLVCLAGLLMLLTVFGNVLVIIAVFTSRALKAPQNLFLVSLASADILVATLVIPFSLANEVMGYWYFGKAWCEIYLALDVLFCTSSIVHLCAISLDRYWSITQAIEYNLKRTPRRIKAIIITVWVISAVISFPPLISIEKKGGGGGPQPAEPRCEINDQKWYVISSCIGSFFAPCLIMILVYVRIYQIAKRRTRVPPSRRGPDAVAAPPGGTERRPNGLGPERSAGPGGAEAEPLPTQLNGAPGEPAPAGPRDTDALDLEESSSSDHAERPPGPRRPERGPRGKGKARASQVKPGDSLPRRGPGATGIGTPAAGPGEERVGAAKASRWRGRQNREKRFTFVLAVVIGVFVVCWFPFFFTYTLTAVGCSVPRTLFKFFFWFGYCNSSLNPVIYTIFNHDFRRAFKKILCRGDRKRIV", "test": "Radioligand binding assay", "settings": "10 μM; 25 °C, 60 min"}, "Opiate n (OP3, MOP)": {"molecular_target": "Opiate n (OP3, MOP) (Homo sapiens, UniProt P35372)", "sequence (P35372 whole entry)": "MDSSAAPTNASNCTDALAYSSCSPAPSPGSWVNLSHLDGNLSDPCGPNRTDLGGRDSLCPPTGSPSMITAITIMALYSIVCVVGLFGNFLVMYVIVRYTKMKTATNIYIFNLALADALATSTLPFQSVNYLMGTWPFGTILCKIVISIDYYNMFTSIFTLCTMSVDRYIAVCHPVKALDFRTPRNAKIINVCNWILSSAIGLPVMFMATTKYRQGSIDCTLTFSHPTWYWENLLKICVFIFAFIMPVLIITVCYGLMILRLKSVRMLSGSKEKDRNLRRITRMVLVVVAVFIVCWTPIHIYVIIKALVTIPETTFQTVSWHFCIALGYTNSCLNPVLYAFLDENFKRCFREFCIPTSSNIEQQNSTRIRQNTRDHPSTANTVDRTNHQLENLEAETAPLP", "test": "Radioligand binding assay", "settings": "10 μM; 25 °C, 60 min"}, "CYP450, 3A4": {"molecular_target": "CYP450, 3A4 (Homo sapiens, UniProt P08684)", "test": "Cytochrome P450 enzyme assay", "assay_type": "in vitro ADME", "settings": "10 μM; 37 °C, 30 min"}, "Adenosine A3": {"molecular_target": "Adenosine A3 (Homo sapiens, UniProt P0DMS8)", "test": "Radioligand binding assay", "settings": "10 μM; 25 °C, 60 min"}, "Dopamine D1": {"molecular_target": "Dopamine D1 (Homo sapiens, UniProt P21728)", "test": "Radioligand binding assay", "settings": "10 μM; 37 °C, 120 min"}, "Dopamine D24": {"molecular_target": "Dopamine D24 (Homo sapiens, UniProt P14416)", "sequence (P14416 whole entry)": "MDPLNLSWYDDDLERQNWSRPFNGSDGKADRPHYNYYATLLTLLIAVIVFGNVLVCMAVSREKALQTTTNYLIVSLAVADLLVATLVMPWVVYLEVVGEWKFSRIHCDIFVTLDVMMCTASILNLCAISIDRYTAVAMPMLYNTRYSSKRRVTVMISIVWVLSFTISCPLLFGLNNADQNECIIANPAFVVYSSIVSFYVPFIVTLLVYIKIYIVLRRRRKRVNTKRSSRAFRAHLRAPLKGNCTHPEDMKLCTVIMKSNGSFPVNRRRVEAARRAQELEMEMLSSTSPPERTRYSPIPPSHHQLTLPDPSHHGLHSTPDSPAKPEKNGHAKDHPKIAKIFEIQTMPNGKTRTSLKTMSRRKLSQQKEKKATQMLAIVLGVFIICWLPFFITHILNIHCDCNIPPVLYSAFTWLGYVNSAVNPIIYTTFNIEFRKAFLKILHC", "test": "Radioligand binding assay", "settings": "10 μM; 37 °C, 120 min"}, "[1]": {"molecular_target": "Platelet Activating Factor (PA F) (Homo sapiens, UniProt P25105)", "sequence (P25105 whole entry)": "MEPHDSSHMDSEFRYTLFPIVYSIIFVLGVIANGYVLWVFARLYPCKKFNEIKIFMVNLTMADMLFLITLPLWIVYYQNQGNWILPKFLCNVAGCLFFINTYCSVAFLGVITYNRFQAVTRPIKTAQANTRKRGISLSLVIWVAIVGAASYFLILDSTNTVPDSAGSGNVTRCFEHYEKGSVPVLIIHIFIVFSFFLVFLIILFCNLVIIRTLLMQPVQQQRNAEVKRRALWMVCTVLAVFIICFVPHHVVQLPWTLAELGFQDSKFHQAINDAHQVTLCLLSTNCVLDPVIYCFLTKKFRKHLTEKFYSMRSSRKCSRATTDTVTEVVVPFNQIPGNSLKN", "test": "Radioligand binding assay", "settings": "10 μM; 25 °C, 180 min"}, "Adrenergic a1B": {"molecular_target": "Adrenergic a1B (Rattus norvegicus, UniProt P15823)", "sequence (P15823 whole entry)": "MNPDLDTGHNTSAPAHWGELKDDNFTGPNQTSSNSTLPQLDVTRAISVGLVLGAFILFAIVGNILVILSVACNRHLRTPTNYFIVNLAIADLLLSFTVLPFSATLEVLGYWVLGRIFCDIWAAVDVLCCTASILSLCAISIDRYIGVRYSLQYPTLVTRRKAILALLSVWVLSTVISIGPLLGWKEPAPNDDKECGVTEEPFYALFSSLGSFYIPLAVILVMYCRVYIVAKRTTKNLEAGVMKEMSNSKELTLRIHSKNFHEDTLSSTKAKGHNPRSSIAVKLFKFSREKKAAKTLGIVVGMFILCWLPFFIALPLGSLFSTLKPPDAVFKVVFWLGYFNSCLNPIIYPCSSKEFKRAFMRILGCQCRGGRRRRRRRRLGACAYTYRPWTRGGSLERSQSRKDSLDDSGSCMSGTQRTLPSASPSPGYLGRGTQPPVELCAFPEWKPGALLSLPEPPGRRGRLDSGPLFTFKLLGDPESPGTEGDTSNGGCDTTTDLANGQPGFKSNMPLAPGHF", "test": "Radioligand binding assay", "settings": "10 μM; 25 °C, 60 min"}, "[2]": {"tested_on": "primary bone marrow derived dendritic cells (BMDC)", "test": "Cytokine induction", "assay_type": "cell-based, mouse", "settings": "graded doses overnight, ELISA (figures 1B, C)"}, "Histamine H3": {"molecular_target": "Histamine H3 (Homo sapiens, UniProt Q9Y5N1)", "sequence (Q9Y5N1 whole entry)": "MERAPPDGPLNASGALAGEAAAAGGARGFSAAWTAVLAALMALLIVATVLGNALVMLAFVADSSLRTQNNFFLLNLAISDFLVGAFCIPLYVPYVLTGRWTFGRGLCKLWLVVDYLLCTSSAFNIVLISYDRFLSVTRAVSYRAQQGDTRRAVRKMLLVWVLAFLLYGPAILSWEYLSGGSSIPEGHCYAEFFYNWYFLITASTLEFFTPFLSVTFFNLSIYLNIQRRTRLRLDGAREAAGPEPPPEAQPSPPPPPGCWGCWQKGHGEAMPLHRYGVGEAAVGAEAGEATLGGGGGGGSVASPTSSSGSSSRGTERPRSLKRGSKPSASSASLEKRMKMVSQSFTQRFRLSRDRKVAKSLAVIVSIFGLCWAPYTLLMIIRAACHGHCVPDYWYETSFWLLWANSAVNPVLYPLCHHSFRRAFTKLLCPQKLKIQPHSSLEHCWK", "test": "Radioligand binding assay", "settings": "10 μM; 25 °C, 120 min"}, "GABAA, Muscimol, Central": {"tested_on": "GABAA, Muscimol, Central", "test": "Radioligand binding assay", "set-up": "species or system rat", "settings": "10 μM; 4 °C, 10 min"}, "Sigma al": {"molecular_target": "Sigma al (Homo sapiens, UniProt Q99720)", "test": "Radioligand binding assay", "settings": "10 μM; 37 °C, 240 min"}, "Adenosine A1": {"molecular_target": "Adenosine A1 (Homo sapiens, UniProt P30542)", "sequence (P30542 whole entry)": "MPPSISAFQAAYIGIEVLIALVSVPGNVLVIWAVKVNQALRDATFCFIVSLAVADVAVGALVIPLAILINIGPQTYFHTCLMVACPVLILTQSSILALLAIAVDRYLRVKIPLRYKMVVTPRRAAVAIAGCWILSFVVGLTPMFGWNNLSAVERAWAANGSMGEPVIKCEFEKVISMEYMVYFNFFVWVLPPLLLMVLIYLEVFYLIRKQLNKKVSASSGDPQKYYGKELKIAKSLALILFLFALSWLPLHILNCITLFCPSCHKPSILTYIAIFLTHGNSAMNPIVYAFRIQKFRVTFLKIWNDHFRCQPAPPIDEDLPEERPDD", "test": "Radioligand binding assay", "settings": "10 μM; 25 °C, 90 min"}, "[3]": {"tested_on": "murine macrophage cell line RAW 264.7", "test": "Cytokine induction", "assay_type": "cell-based", "settings": "RAW 264.7 cells, graded doses overnight, ELISA (figure 1A)"}, "[4]": {"molecular_target": "Nicotinic Acetylcholine a1, Bungarotoxin (Homo sapiens, UniProt P02708+P07510+Q07001)", "test": "Radioligand binding assay", "settings": "10 μM; 25 °C, 120 min"}, "Adrenergic a1D": {"molecular_target": "Adrenergic a1D (Homo sapiens, UniProt P25100)", "sequence (P25100 whole entry)": "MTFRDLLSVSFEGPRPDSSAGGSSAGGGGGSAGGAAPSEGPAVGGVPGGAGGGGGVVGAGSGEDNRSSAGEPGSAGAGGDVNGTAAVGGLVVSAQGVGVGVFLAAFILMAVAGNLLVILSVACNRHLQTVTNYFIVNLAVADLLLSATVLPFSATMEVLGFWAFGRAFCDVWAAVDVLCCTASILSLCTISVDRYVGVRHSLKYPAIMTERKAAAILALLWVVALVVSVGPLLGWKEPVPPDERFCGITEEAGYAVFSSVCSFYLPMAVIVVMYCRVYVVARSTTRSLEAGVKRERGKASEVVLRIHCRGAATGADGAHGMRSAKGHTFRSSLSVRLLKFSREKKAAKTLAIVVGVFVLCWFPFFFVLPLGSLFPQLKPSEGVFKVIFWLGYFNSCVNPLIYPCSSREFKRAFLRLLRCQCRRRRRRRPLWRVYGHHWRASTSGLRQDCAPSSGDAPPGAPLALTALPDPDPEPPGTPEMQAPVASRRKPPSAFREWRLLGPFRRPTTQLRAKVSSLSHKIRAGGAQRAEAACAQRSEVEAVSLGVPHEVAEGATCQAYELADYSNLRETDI", "test": "Radioligand binding assay", "settings": "10 μM; 25 °C, 60 min"}, "Muscarinic M3": {"molecular_target": "Muscarinic M3 (Homo sapiens, UniProt P20309)", "assay_type": "binding", "settings": "10 μM; 25 °C, 120 min"}, "CYP450, 2C9": {"molecular_target": "CYP450, 2C9 (Homo sapiens, UniProt P11712)", "test": "Cytochrome P450 enzyme assay", "assay_type": "in vitro ADME", "settings": "10 μM; 37 °C, 45 min"}, "TLR7": {"tested_on": "TLR7", "test": "In vitro TLR7-dependent cytokine induction, overall potency comparison", "assay_type": "cell-based"}, "[5]": {"molecular_target": "Epidermal Growth Factor (EG F) (Homo sapiens, UniProt P00533)", "test": "Radioligand binding assay", "settings": "10 μM; 25 °C, 60 min"}, "[6]": {"assay_type": "in vivo, mice", "settings": "for Body weight change after a single intravenous injection of the MTD: 150 mg/kg TMX-202 or 15 mg/kg IMQ i.v. (figure 4)"}, "Transporter, GABA": {"molecular_target": "Transporter, GABA (Rattus norvegicus, UniProt P23978)", "test": "Radioligand binding assay", "settings": "10 μM; 25 °C, 20 min"}, "Purinergic P2x": {"tested_on": "Purinergic P2x", "test": "Radioligand binding assay", "set-up": "species or system rabbit", "settings": "10 μM; 25 °C, 30 min"}, "[7]": {"molecular_target": "Transporter, Serotonin (5-Hyd roxytryptamine) (SERT) (Homo sapiens, UniProt P31645)", "assay_type": "binding", "settings": "10 μM; 25 °C, 60 min"}, "Adenosine A2A": {"molecular_target": "Adenosine A2A (Homo sapiens, UniProt P29274)", "test": "Radioligand binding assay", "settings": "10 μM; 25 °C, 90 min"}, "CYP450, 1A2": {"molecular_target": "CYP450, 1A2 (Homo sapiens, UniProt P05177)", "test": "Cytochrome P450 enzyme assay", "assay_type": "in vitro ADME", "settings": "10 μM; 37 °C, 30 min"}, "Cannabinoid CB1": {"molecular_target": "Cannabinoid CB1 (Homo sapiens, UniProt P21554)", "test": "Radioligand binding assay", "settings": "10 μM; 37 °C, 90 min"}, "Glutamate, NMDA, Agonism": {"tested_on": "Glutamate, NMDA, Agonism", "test": "Radioligand binding assay", "set-up": "species or system rat", "settings": "10 μM; 4 °C, 20 min"}, "Melatonin MT1": {"molecular_target": "Melatonin MT1 (Homo sapiens, UniProt P48039)", "sequence (P48039 whole entry)": "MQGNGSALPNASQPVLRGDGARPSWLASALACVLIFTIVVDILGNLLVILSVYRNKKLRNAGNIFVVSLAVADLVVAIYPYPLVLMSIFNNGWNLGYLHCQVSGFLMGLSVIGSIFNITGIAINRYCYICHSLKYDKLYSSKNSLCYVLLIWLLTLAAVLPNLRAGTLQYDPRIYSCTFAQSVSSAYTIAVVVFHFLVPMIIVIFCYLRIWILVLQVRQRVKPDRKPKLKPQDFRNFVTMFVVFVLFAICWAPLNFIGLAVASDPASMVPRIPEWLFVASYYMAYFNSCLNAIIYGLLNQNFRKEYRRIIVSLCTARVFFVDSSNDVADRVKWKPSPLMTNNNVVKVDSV", "test": "Radioligand binding assay", "settings": "10 μM; 25 °C, 180 min"}, "Muscarinic M2": {"molecular_target": "Muscarinic M2 (Homo sapiens, UniProt P08172)", "test": "Radioligand binding assay", "settings": "10 μM; 25 °C, 120 min"}, "Interleukin IL-1": {"molecular_target": "Interleukin IL-1 (Mus musculus, UniProt P13504)", "test": "Radioligand binding assay", "settings": "10 μM; 37 °C, 120 min"}, "Dopamine D4.2": {"molecular_target": "Dopamine D4.2 (Homo sapiens, UniProt P21917, DEL265-296)", "test": "Radioligand binding assay", "settings": "10 μM; 25 °C, 120 min"}, "Adrenergic β2": {"molecular_target": "Adrenergic β2 (Homo sapiens, UniProt P07550)", "sequence (P07550 whole entry)": "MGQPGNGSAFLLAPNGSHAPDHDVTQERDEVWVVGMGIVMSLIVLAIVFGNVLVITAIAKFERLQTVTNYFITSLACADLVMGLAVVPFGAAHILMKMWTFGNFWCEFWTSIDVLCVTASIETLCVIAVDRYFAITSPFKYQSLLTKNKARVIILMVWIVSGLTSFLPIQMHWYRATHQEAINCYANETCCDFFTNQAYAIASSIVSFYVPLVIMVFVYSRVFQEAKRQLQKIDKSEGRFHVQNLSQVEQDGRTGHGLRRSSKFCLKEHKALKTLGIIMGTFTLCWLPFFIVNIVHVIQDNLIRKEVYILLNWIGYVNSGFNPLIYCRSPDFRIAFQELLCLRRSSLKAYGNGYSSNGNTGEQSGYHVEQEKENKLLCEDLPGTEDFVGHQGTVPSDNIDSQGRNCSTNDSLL", "test": "Radioligand binding assay", "settings": "10 μM; 25 °C, 60 min"}, "Opiate 51 (OP1, DOP)": {"molecular_target": "Opiate 51 (OP1, DOP) (Homo sapiens, UniProt P41143)", "test": "Radioligand binding assay", "settings": "10 μM; 25 °C, 60 min"}, "Opiate K (OP2, KOP)": {"molecular_target": "Opiate K (OP2, KOP) (Homo sapiens, UniProt P41145)", "test": "Radioligand binding assay", "settings": "10 μM; 25 °C, 60 min"}, "Histamine H1": {"molecular_target": "Histamine H1 (Homo sapiens, UniProt P35367)", "assay_type": "binding", "settings": "10 μM; 25 °C, 180 min"}, "Glutamate, Kainate": {"tested_on": "Glutamate, Kainate", "test": "Radioligand binding assay", "set-up": "species or system rat", "settings": "10 μM; 4 °C, 60 min"}, "Nicotinic Acetylcholine": {"tested_on": "Nicotinic Acetylcholine", "test": "Radioligand binding assay", "set-up": "species or system human", "settings": "10 μM; 25 °C, 60 min"}},
  "note": "Where two headings read alike, the source gives them in different places.",
  "data": [
    {"smiles": "CCCCCCCCCCCC(=O)OC[C@@H](COP(=O)(O)OCCNC(=O)c1ccc(Cn2c(=O)[nH]c3c(N)nc(OCCOC)nc32)cc1)OC(=O)CCCCCCCCCCC", "note": "[TMX-202]", "values": [
      {"measurement": "Percent inhibition of specific radioligand binding", "setting": "Bradykinin B1", "result": 3, "unit": "%"},
      {"measurement": "Percent inhibition of specific radioligand binding", "setting": "Dopamine D3", "result": 15, "unit": "%"},
      {"measurement": "Percent inhibition of specific radioligand binding", "setting": "Adrenergic a2A", "result": 3, "unit": "%"},
      {"measurement": "Percent inhibition of specific radioligand binding", "setting": "Opiate n (OP3, MOP)", "result": 42, "unit": "%"},
      {"measurement": "Percent inhibition of enzyme activity", "setting": "CYP450, 3A4", "result": "−1", "unit": "%"},
      {"measurement": "Percent inhibition of specific radioligand binding", "setting": "Adenosine A3", "result": 6, "unit": "%"},
      {"measurement": "Percent inhibition of specific radioligand binding", "setting": "Dopamine D1", "result": 15, "unit": "%"},
      {"measurement": "Percent inhibition of specific radioligand binding", "setting": "Dopamine D24", "result": 25, "unit": "%"},
      {"measurement": "Percent inhibition of specific radioligand binding", "setting": "[1]", "result": 33, "unit": "%"},
      {"measurement": "Percent inhibition of specific radioligand binding", "setting": "Adrenergic a1B", "result": 0, "unit": "%"},
      {"measurement": "Potency of mIL-6 and mIL-1β induction compared with IMQ", "setting": "[2]", "result": "more potent cytokine inducer"},
      {"measurement": "Percent inhibition of specific radioligand binding", "setting": "Histamine H3", "result": "−14", "unit": "%"},
      {"measurement": "Percent inhibition of specific radioligand binding", "setting": "GABAA, Muscimol, Central", "result": "−3", "unit": "%"},
      {"measurement": "Percent inhibition of specific radioligand binding", "setting": "Sigma al", "result": "−5", "unit": "%"},
      {"measurement": "Percent inhibition of specific radioligand binding", "setting": "Adenosine A1", "result": 10, "unit": "%"},
      {"measurement": "Potency of mTNFα induction compared with IMQ", "setting": "[3]", "result": "more potent cytokine inducer"},
      {"measurement": "Percent inhibition of specific radioligand binding", "setting": "[4]", "result": "−3", "unit": "%"},
      {"measurement": "Percent inhibition of specific radioligand binding", "setting": "Adrenergic a1D", "result": 6, "unit": "%"},
      {"measurement": "Percent inhibition of specific radioligand binding", "setting": "Muscarinic M3", "result": "−6", "unit": "%"},
      {"measurement": "Percent inhibition of enzyme activity", "setting": "CYP450, 2C9", "result": "−4", "unit": "%"},
      {"measurement": "Potency relative to IMQ in causing TLR7-dependent cytokine induction", "setting": "TLR7", "result": 100, "unit": "times"},
      {"measurement": "Percent inhibition of specific radioligand binding", "setting": "[5]", "result": 6, "unit": "%"},
      {"measurement": "MTD (molar)", "setting": "[6]; C57BL/6 mice, intravenous administration", "result": "approximately 163 μmoles/kg"},
      {"measurement": "Body weight change after a single intravenous injection of the MTD", "setting": "[6]; Tlr7−/− or Myd88−/− mice", "result": "no significant body weight loss"},
      {"measurement": "Body weight change after a single intravenous injection of the MTD", "setting": "[6]; WT mice", "result": "significant reduction in body weight"},
      {"measurement": "Percent inhibition of specific radioligand binding", "setting": "Transporter, GABA", "result": 1, "unit": "%"},
      {"measurement": "Percent inhibition of specific radioligand binding", "setting": "Purinergic P2x", "result": 9, "unit": "%"},
      {"measurement": "Percent inhibition of specific radioligand binding", "setting": "[7]", "result": 18, "unit": "%"},
      {"measurement": "Percent inhibition of specific radioligand binding", "setting": "Adenosine A2A", "result": "−8", "unit": "%"},
      {"measurement": "Percent inhibition of enzyme activity", "setting": "CYP450, 1A2", "result": "−4", "unit": "%"},
      {"measurement": "Percent inhibition of specific radioligand binding", "setting": "Cannabinoid CB1", "result": "−14", "unit": "%"},
      {"measurement": "Percent inhibition of specific radioligand binding", "setting": "Glutamate, NMDA, Agonism", "result": 10, "unit": "%"},
      {"measurement": "Percent inhibition of specific radioligand binding", "setting": "Melatonin MT1", "result": 3, "unit": "%"},
      {"measurement": "Percent inhibition of specific radioligand binding", "setting": "Muscarinic M2", "result": 0, "unit": "%"},
      {"measurement": "Percent inhibition of specific radioligand binding", "setting": "Interleukin IL-1", "result": 5, "unit": "%"},
      {"measurement": "Percent inhibition of specific radioligand binding", "setting": "Dopamine D4.2", "result": 14, "unit": "%"},
      {"measurement": "Percent inhibition of specific radioligand binding", "setting": "Adrenergic β2", "result": 3, "unit": "%"},
      {"measurement": "Percent inhibition of specific radioligand binding", "setting": "Opiate 51 (OP1, DOP)", "result": 5, "unit": "%"},
      {"measurement": "Percent inhibition of specific radioligand binding", "setting": "Opiate K (OP2, KOP)", "result": "−9", "unit": "%"},
      {"measurement": "Percent inhibition of specific radioligand binding", "setting": "Histamine H1", "result": "−6", "unit": "%"},
      {"measurement": "Percent inhibition of specific radioligand binding", "setting": "Glutamate, Kainate", "result": 1, "unit": "%"},
      {"measurement": "Percent inhibition of specific radioligand binding", "setting": "Nicotinic Acetylcholine", "result": 9, "unit": "%"}
    ]}
  ]
}
